In patent publication US20250093270A1, “Method for Detecting Enzyme Activity and Fluorescent Probe Used in Said Method” (priority 2022, published 2025):

Assays:
[1] = Microdevice compatibility: fluorescence image of a microdevice loaded with probe and reacted with a thiol (leakage to oil, adsorption to well); conditions: for adsorption to the microdevice (inner wall of the reaction vessel / well): reaction vessel formed of CYTOP; for leakage of the probe enclosed in the well of the microdevice to the oil: sealing oil
Protocol: (§1) An enzyme stock solution was diluted with an assay buffer containing a fluorescent probe. Next, 40 μL of a reaction mixture was added to the microdevice (Simoa disk; Quanterx Corporation). Next, 80 μL of FC-70 (Sigma-Aldrich) was introduced into the microdevice to wash off the excess reaction mixture and form W/O droplets. A fluorescence signal of the catalytically produced fluorescent dye was measured under a fluorescence microscope, and the enzyme activity in the chamber was measured.
(§2) Fluorescence images were acquired using a 20× dry objective (Plan Apo 20x), an sCMOS camera (ORCA-FusionC14440, Hamamatsu Photonics K.K.), a white LED lighting unit (X-Cite Xylis, Opto Science, Inc.), and a fluorescence microscope (Ti2, Nikon Corporation) equipped with a motorized stage. In the analysis, measurement was performed using a solution containing sSiR (10 μM) as an internal standard and the focus was adjusted using fluorescence. Images were acquired in tile scan mode at full focus.
FIG. 5(a) illustrates a photograph of a state in which each of three kinds of probes containing 2- and 6-position unsubstituted BODIPY and GSH are supplemented with octanol and water. FIG. 5(b) illustrates a fluorescence image of a microdevice equipped with a probe and reacted with a thiol.
FIG. 5(d) illustrates fluorescence images of a microdevice containing human plasma that was loaded with a fluorescent probe (30 μM) in HEPES-buffer (10 mM, pH 7.4, containing 0.1% CHAPS) and incubated at 37° C. for 1.5 hours.
FIG. 7(a) illustrates a photograph (water-octanol distribution experiment) of a state in which each probe and GSH are supplemented with octanol and water. FIG. 7(b) illustrates a fluorescence image of a microdevice equipped with a probe and reacted with a thiol.
(§3) The image was acquired after incubation at 25° C. for 30 minutes.

[2] = Water-octanol distribution experiment (probe and GSH supplemented with octanol and water); assay type: physicochemical; conditions: for distribution to octanol (lipid-soluble solvent) side: water-octanol, with GSH
cholinesterase (ChE) = conditions: blood diluted to 1/10,000; corresponding to a total enzyme concentration of 1 pM
Protocol: as §1, §2
FIG. 5(c) illustrates a schematic diagram of a coupled assay of an acetylthiocholine system for detection of cholinesterase (ChE) activity.
as §3
The upper view is a fluorescence image of a microdevice equipped with a probe (30 μM), acetylthiocholine (1 mM), and a 1/10,000-fold diluted plasma sample of a healthy human subject. […]

[3] = Comparison of water solubility by difference in elution time of LC-MS (C18); assay type: physicochemical; conditions: C18, ammonium formate/acetonitrile gradient
Protocol: FIG. 10 illustrates the analysis of a mixture of five compounds by LC-MS and the extracted ion chromatogram of each compound shown with the display color. The results of the diphosphonic acid form, the dicarboxylic acid form, the disulfonic acid form, the monosulfonic acid form, and the monocarboxylic acid form are shown from the left.
The compound was eluted with a linear gradient of A/B=100/0 at 0.5 minutes and 100/0 to 0/100 at 3 minutes detected at 500 nm (eluent A: H2O containing 10 mM ammonium formate; eluent B: acetonitrile 80%, H2O 20% containing 10 mM ammonium formate).

acetylcholinesterase = experiment: Acetylthiocholine coupled assay in a microdevice with the nitrophenol-type probe; assay type: biochemical; conditions: probe 1 μM, acetylthiocholine iodide 1 mM, human plasma 1,000-fold dilution, 90 minutes at 37° C.
Protocol: The images were acquired after 90 minutes at 37° C.

Compound	adsorption to the microdevice (inner wall of the reaction vessel / well) [1]	leakage of the probe enclosed in the well of the microdevice to the oil [1]	further results
2,6-diCO2H Nitroolefin BODIPY [compound 9]	the same result as in Example 1		distribution to octanol (lipid-soluble solvent) side [2]: partially observed
2,6-diPO3H2 Nitroolefin BODIPY [compound 17]	no adsorption to the microdevice was observed		water solubility ([1]; inferred from behaviour in the microdevice): high water solubility; λ (cholinesterase (ChE)): 0.03; water solubility evaluated by elution time of LC-MS [3]: greatly improved
2,6-sulfo-nitroolefin BODIPY [compound 2]	not observed	suppressed	
2-CO2H Nitroolefin BODIPY [compound 4]	the same result as in Example 1		lipid solubility [2]: particularly highly lipid-soluble; distribution to octanol (lipid-soluble solvent) side [2]: a large amount of the monocarboxylic acid form was distributed to octanol
2-sulfo-nitroolefin BODIPY [compound 1]	adsorption of the probe to the inner wall of the reaction vessel	suppressed	
8-(p-nitroolefin)-BODIPY [2- and 6-position unsubstituted BODIPY, reference compound]		dissolved in oil	lipid solubility [2]: high lipid solubility
COc1cc(OC)c(C2=C3C=CC(=O)C=C3[Si](C)(C)c3cc(Oc4ccc(C)cc4[N+](=O)[O-])ccc32)cc1C [2.4-dinitro sTM]			detection of acetylcholinesterase activity in blood (acetylcholinesterase): detected
